Results reported in patent publication US20180079724A1, “SULFONIC ACID DERIVATIVE COMPOUND, PHOTOACID GENERATOR, RESIST COMPOSITION, CATIONIC POLYMERIZATION INITIATOR, AND CATIONICALLY POLYMERIZABLE COMPOSITION” (ADEKA CORPORATION, priority 2015, published 2018).

Columns and labels:
Assay type in all cases: physicochemical
[1] = Solubility to propylene glycol monomethyl ether acetate; settings: propylene glycol monomethyl ether acetate at 25° C., 1%-by-mass increments
Protocol: (§1) The sulfonic acid derivative compound of Compound No. 4 and Comparative Compound 1 represented by the formula below were each dissolved in acetonitrile, and their absorption spectra were measured using a solar photometer U-3010 to determine the values of λmax and α (molar extinction coefficient) for absorption in a range of 300 nm to 400 nm as well as the value of E at 365 nm. In addition, their solubility to propylene glycol monomethyl ether acetate at 25° C. was evaluated. As for the solubility, the concentration of each compound was increased by 1%-by-mass increments, and the concentration at which no compound was left undissolved was determined to indicate the solubility in terms of this concentration.

[2] = Acid generation rate (photodegradation rate by HPLC after 365 nm UV irradiation); settings: 365 nm UV 100 mW/cm^2, 1.5×10^−4 mol/L in acetonitrile/water=9/1
Protocol: For each of the sulfonic acid derivative compound of Compound No. 4 and Comparative Compound 1, a 1.5×10^−4 mol/L acetonitrile/water mixed solution (volume ratio: acetonitrile/water=9/1) was prepared, and exactly 5.0 mL of the mixed solution was placed in a Petri dish having an inner diameter of 42 mm. Using a UV lamp and a cut filter transmitting only light having a wavelength of about 365 nm, which are manufactured by Hoya Candeo Optronics Corporation, the mixed solution was irradiated with UV having an intensity of 100 mW/cm^2. The irradiation was performed for 0.5 seconds, 1 second and 3 seconds for each solution. After this exposure, the photodegradation rate (%) was determined by HPLC as the acid generation rate.

[3] = UV absorption spectrum in acetonitrile; settings: for Maximum absorption wavelength (nm): absorption in a range of 300 nm to 400 nm; for Molar extinction coefficient ϵ (at maximum absorption wavelength): at λmax in 300 nm to 400 nm
Protocol: as §1

[4] = Transmittance at 365 nm; settings: in acetonitrile
Protocol: The sulfonic acid derivative compound of Compound No. 4 and Comparative Compound 2 represented by the formula below were each dissolved in acetonitrile, and their absorption spectra were measured using a solar photometer U-3010 to determine the transmittance at 365 nm.

| Solubility (% by mass) [1] [% by mass] | Photodegradation rate (%) ([2]; 0.5 seconds) | Photodegradation rate (%) ([2]; 1 second) | Photodegradation rate (%) ([2]; 3 seconds) | Molar extinction coefficient, ϵ, at 365 nm [3] | Maximum absorption wavelength (nm) [3] [nm] | Molar extinction coefficient ϵ (at maximum absorption wavelength) [3] | Transmittance at 365 nm (%) [4] [%] | SMILES |
| --- | --- | --- | --- | --- | --- | --- | --- | --- |
| 1.9 | 21.4 | 36.9 | 68.4 | 0.7 × 10^3 | 336.0 | 1.42 × 10^4 |  | O=C1c2cccc3cccc(c23)C(=O)N1OS(=O)(=O)C(F)(F)F [Comparative Compound 1] |
|  |  |  |  |  |  |  | 1.1 | CCCCc1ccc2c3c(cccc13)C(=O)N(OS(=O)(=O)C(F)(F)F)C2=O [Comparative Compound 2] |
| 20 | 62.0 | 86.7 | 100 | 5.40 × 10^3 | 339.5 | 1.31 × 10^4 | 34.1 | CCCCc1cc2c3c(cccc3c1)C(=O)N(OS(=O)(=O)C(F)(F)F)C2=O [Compound No. 4] |
